Earlier results on two compounds are cited in patent US20260284033A1, “COMBINATION THERAPY WITH LP-PLA2 INHIBITOR AND A SECOND AGENT” (SciNeuro Therapeutics Inc., priority 2023, published 2026).

SMILES strings stand for the structures.

Series [1] has as its system BBB leakage animal models.
The subject of series [2] is AD patients. The conditions noted are these: phase 2, AD patients.

For `CCN(CC)CCN(Cc1ccc(-c2ccc(C(F)(F)F)cc2)cc1)C(=O)Cn1c(SCc2ccc(F)cc2)nc(=O)c2c1CCC2` [darapladib], in series [1], the BBB leakage result is “reduced BBB leakage” and the vascular dementia pathology entry is given as “improved vascular dementia pathology”.
In the case of `COCCN1CCC(N(Cc2ccc(-c3ccc(C(F)(F)F)cc3)cc2)C(=O)Cn2c(SCc3cccc(F)c3F)cc(=O)c3ccccc32)CC1` [rilapladib], in series [2], the cognitive decline result is on record as “slowed down cognitive decline”, the disease biomarkers result was “improved disease biomarkers” and the tolerability result is given as “well tolerated”.
